We go through one compound from patent publication US7332601B2, “CCI-779 derivatives and methods of making same” (Wyeth, priority 2004, dated 2008).

In one data set the target is T1, CYP450 2C8 (Homo sapiens, UniProt P10632).
T1 sequence (P10632 1-490): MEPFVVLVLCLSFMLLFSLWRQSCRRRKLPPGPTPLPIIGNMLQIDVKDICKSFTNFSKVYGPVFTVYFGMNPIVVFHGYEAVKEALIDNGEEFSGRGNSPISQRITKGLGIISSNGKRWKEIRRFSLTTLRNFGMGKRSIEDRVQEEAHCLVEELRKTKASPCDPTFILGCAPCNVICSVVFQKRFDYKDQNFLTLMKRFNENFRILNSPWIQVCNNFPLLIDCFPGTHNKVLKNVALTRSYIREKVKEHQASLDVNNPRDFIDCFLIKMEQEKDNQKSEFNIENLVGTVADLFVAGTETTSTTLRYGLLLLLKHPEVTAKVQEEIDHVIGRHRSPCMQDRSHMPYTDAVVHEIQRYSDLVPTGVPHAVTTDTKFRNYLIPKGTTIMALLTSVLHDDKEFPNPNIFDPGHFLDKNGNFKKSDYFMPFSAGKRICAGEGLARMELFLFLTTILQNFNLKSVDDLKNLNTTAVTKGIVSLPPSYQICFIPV
Briefly: Generation of CCI-779 derivatives by CYP450 isozyme incubation. The class given is in vitro ADME.

The next data set concerns breast cancer lines. The conditions noted are these: one of two breast cancer lines studied in vivo; cited from earlier work.
The subject of a further data set is orthotopic glioma model. The conditions noted are these: nude mice; cited from earlier work.
In the next data set the target is CYP450 2C9 (Homo sapiens, UniProt P11712). Briefly: Generation of CCI-779 derivatives by CYP450 isozyme incubation. The class given is in vitro ADME.
CYP450 2C9, sequence (P11712 whole entry): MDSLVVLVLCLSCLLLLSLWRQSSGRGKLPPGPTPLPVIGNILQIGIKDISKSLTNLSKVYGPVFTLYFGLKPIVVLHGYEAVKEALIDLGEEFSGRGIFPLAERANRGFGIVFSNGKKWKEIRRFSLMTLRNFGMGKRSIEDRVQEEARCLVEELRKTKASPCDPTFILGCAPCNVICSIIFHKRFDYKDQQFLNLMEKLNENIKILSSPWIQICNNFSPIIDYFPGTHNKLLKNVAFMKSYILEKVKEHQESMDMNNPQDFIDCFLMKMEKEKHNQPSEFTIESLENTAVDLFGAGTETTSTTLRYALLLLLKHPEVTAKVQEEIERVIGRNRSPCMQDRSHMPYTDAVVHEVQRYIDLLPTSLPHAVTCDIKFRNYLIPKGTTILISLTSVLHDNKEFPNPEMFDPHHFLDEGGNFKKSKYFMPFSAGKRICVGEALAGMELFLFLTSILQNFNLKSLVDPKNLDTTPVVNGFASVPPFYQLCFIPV
Data set [1] deals with histologically diverse tumor cells. The conditions noted are these: cited from earlier work.
Another data set addresses T2, CYP3A4 (Homo sapiens, UniProt P08684).
T2 construct: host or cells: E. coli (membrane preparation)
Briefly: Generation of CCI-779 derivatives by CYP450 isozyme incubation. Format: in vitro ADME. Here is the method:
The invention provides a method of generating specific derivatives of CCI-779 by incubating CCI-779 with membranes of recombinant E. coli cells expressing human cytochrome P450-3A4 isozymes.
In order to generate the specific hydroxylation derivatives of the invention, CCI-779 and CYP3A4 may be incubated in the presence of a reducing agent, such as NADH or NADPH. Suitably, CCI-779 and the enzyme can be present in a ratio of 300:1 to 500:1, and desirably about 330:1 CCI-779 to enzyme. In the examples below, these components are mixed to a final concentration of 0.1 mM CCI-779, 300 nM 3A4 enzyme, and 2 mM NADPH regenerate system. However, other concentrations can be readily used.
To a 5L reactor containing CCI-779 514 mg (0.5 mmol), MgCl2 (0.4 M×100 ml), NADPH generating system (NADP sodium salt: 75 mg×100 mL, D-glucose-6-phospate: 60 mg/mL×100 mL; glucose-6-phosphate dehydrogenase: 25 units/mL×100 mL), and E. coli-expressed CYP-3A4 membrane (1500 nmol) was added potassium phosphate buffer solution to 5L. The mixture solution was incubated at 37° C. under oxygen atmosphere (sparging O2 at 0.3 L/min) with agitation of 125 rpm for one hour. After one-hour reaction, the reaction solution was cooled down to 25° C. on an ice bath and extracted with an equal volume of ethyl acetate twice. […]

The test system of data set [2] is human tumor xenografts of diverse histological types. The conditions noted are these: nude mice, cited from earlier work.
The next data set addresses CYP450 2C19 (Homo sapiens, UniProt P33261). Put plainly: Generation of CCI-779 derivatives by CYP450 isozyme incubation. Format: in vitro ADME.
A further data set has as its target T3, CYP450 2A6 (Homo sapiens, UniProt P11509).
T3 sequence (P11509 1-494): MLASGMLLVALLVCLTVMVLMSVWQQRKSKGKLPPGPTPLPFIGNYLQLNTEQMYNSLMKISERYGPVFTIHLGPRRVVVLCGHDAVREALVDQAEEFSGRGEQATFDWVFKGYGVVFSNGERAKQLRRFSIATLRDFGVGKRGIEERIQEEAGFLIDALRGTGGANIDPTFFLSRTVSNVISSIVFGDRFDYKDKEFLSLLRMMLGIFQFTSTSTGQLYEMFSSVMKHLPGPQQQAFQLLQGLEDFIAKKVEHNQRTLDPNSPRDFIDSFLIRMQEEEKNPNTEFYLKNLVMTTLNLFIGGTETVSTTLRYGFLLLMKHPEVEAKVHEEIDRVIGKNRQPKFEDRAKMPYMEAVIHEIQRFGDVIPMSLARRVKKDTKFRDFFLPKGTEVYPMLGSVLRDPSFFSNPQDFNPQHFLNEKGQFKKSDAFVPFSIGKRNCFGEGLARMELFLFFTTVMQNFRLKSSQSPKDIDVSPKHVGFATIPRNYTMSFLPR
The data set is described as above. Format: in vitro ADME.

For another data set, the target named is CYP450 2E1 (Homo sapiens, UniProt P05181). The description is as above. The class given is in vitro ADME.
CYP450 2E1, sequence (P05181 whole entry): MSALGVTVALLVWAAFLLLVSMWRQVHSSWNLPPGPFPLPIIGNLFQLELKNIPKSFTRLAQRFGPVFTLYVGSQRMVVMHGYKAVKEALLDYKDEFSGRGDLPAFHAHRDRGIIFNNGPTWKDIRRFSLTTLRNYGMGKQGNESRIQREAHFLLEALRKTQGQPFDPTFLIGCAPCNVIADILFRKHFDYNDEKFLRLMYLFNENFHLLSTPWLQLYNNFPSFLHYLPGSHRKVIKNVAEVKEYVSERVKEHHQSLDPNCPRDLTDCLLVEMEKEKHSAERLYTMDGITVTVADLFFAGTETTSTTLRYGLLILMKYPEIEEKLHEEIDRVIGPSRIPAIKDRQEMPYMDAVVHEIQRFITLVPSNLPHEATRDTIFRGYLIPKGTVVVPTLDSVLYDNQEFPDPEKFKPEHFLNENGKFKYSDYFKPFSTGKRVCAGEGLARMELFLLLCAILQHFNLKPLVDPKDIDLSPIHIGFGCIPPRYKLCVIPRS
The next data set deals with human pancreatic tumors. The conditions noted are these: several human pancreatic tumors in nude mice; cited from earlier work.
The subject of data set [3] is human glioblastoma cell line. The conditions noted are these: human glioblastoma cell line in vitro; cited from earlier work.

SMILES strings stand for the structures.

CYP450 2C19, sequence (P33261 whole entry): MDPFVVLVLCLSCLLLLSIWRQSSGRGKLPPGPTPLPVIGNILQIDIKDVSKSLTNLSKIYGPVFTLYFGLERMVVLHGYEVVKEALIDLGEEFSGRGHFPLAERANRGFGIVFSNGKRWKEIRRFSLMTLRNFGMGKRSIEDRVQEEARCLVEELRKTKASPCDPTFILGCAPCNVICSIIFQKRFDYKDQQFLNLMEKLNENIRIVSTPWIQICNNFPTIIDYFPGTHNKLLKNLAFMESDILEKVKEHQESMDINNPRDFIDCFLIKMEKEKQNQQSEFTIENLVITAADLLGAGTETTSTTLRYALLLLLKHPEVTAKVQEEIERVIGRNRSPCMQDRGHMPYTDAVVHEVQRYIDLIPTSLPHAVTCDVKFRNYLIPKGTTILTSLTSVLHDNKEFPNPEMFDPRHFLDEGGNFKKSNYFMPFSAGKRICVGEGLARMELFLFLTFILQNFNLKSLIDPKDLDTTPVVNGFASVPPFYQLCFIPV
T2 sequence (P08684 whole entry): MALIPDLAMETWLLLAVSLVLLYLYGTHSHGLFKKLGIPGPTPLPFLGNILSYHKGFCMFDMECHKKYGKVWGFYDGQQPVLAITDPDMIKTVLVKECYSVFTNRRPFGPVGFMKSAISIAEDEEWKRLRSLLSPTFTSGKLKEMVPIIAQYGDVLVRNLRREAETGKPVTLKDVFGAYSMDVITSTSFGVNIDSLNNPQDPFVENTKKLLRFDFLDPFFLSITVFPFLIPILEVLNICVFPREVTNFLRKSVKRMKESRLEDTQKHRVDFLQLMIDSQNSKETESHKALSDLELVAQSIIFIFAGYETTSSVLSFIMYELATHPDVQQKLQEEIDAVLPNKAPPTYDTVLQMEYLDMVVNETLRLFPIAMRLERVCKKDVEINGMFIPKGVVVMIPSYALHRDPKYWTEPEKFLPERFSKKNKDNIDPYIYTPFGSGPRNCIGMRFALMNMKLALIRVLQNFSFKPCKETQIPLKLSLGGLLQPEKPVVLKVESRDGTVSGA

On to `CO[C@H]1CC2CC[C@@H](C)[C@@](O)(O2)C(=O)C(=O)N2CCCC[C@H]2C(=O)O[C@H]([C@H](C)C[C@@H]2CC[C@@H](OC(=O)C(C)(CO)CO)[C@H](OC)C2)CC(=O)[C@H](C)/C=C(\C)[C@@H](O)[C@@H](OC)C(=O)[C@H](C)C[C@H](C)/C=C/C=C/C=C/1C` [CCI-779, Rapamycin 42-ester with 2,2-bis(hydroxymethyl)propionic acid], for which the “generation of CCI-779 derivatives by the enzyme” value was “not able to generate these derivatives” at CYP450 2C8; “not able to generate these derivatives” on CYP450 2C9; “the only member of this family of enzymes to specifically generate CCI-779 derivatives” on CYP3A4; “not able to generate these derivatives” on CYP450 2C19; “not able to generate these derivatives” at CYP450 2A6; “not able to generate these derivatives” at CYP450 2E1. In addition, the tumor growth result in the data set on breast cancer lines and with human pancreatic tumors was “inhibited” in each case. Moreover, the “activity in orthotopic glioma model” value in the data set on orthotopic glioma model is on record as “active”. Further, the “sensitivity of tumor lines” value in data set [1] (CNS cancer, leukemia (T-cell), breast cancer, prostate cancer and melanoma lines) is “among the most sensitive”. For the same compound, the “inhibition of growth of tumor cells” value in [1] (in vitro, a number of histologically diverse tumor cells) was “inhibit the growth”. Further, in [1] (in vitro), the cell cycle effect entry was “arrested cells in the G1 phase”. For the same compound, the sensitivity of gliomas entry in data set [2] (gliomas) was “particularly sensitive”. In [2], the “activity against human tumor xenografts” value is “has activity”. For the same compound, in data set [3], the “growth factor (platelet-derived)-induced stimulation” value is listed as “markedly suppressed”.
